Laboratory results: US20230111996A1, “COMPOUNDS AND CONJUGATES THEREOF” (priority 2020, published 2023)

What was measured:
Assay type in all cases: cell-based
[1] = tested on: A549; assay: In-vitro cytotoxicity test of compounds ([…]-GLO), A549; conditions: Homo sapiens; A549, 72 hours
Procedure: (§1) Killing of human tumor cell lines was evaluated in vitro using the protocol recommended in the […]-GLO® kit (Promega, Madison, Wis.). Briefly, 3×10^3 cells in […] RPMI+10% FBS were added to the inner wells of white-walled 96-well plates (Corning® Costar®, Fisher Scientific, Waltham, Mass.). The following cell lines were tested: A549, HCT116 and SKBR3. The test compounds were diluted to a 5Ax stock (125 μM) in RPMI+10% FBS. Treatments were then serially diluted 1:10 in RPMI+10% FBS. […] of this series was added to the cells in triplicate, resulting in a 9-point dose curve of test compound ranging from […] at the highest concentration to 2.5×10^−7 mM at the lowest. DMSO (vehicle) and media-only controls also were included. Plates were incubated at 37° C., 5% CO2 for 72 hours. At the end of the incubation period, […] of the Substrate Solution (Promega, Madison Wis.) was added to each well. Luminescence was measured using an EnVision Multilabel plate reader (Perkin Elmer, Waltham, Mass.). Data were analyzed and graphed using GraphPad Prism software (GraphPad Software, Inc., La Jolla, Calif.).

[2] = tested on: SKBR3; assay: In-vitro cytotoxicity test of compounds ([…]-GLO), SKBR3; conditions: Homo sapiens, SK-BR-3; SKBR3, 72 hours
Procedure: as §1

[3] = tested on: HCT116; assay: In-vitro cytotoxicity test of compounds ([…]-GLO), HCT116; conditions: Homo sapiens, HCT-116; HCT116, 72 hours
Procedure: as §1

| Compound | IC50 [1] [nM] | IC50 [2] [nM] | IC50 [3] [nM] |
| --- | --- | --- | --- |
| CC[C@@]1(O)C(=O)OCc2c1cc1n(c2=O)Cc2c-1nc1cc(F)c(N)c3c1c2CCC3 [Compound 1, (S)-4-amino-9-ethyl-5-fluoro-9-hydroxy-1,2,3,9,12,15-hexahydro-10H,13H-benzo[de]pyrano[3′,4′:6,7]indolizino[1,2-b]quinoline-10,13-dione] | 0.248 | 0.0958 | 0.164 |
| CC[C@@]1(O)C(=O)OCc2c1cc1n(c2=O)Cc2c-1nc1cc(F)c(C)c3c1c2[C@@H](N)CC3 [Exatecan] | 2.45 | 0.181 | 0.996 |
